According to patent US20260092179A1, “GENETICALLY MODIFIED HOST CELLS PRODUCING VIOLACEIN, ANALOGUES, AND DERIVATIVES THEREOF” (OCTARINE BIO APS, priority 2022, published 2026):

Key:
[1] = UV absorption capability (absorbance maxima, UV-A, UV-B, UV-C absorption) by HPLC; type: physicochemical
Protocol: The software Agilent Openlab CDS Chemstation Rev.
Violacein is reported as being a potent UV absorbent able to effectively absorb UV radiation, however, much less is known about the other violacein derivatives. To investigate the potential of using violacein and violacein derivatives as UV inhibitors and to potentially impart UV protection to fabrics, the UV absorption spectra of each compound was analyzed by HPLC and the total absorption capability at each of the most relevant UV wavelengths quantified.
For the quantification of UV absorption capacity of the compound of interest, a chromatographic separation on the F5 column and a gradient of water/acetonitrile containing 0.05% formic acid was run according to Example 5). […] The compounds were quantified based on the signal at 230 nm, using calibration curves of authentic analytical standards.
The UV absorption capacity is represented in mAU.min/mM. UV-A, UV-B and UV-C represent the most relevant regions where UV protection is required. UV-C is the most harmful type of UV radiation and can be generated by inorganic sources. UV-B radiation predominantly comes from the suns rays and is responsible for sun burn. UV-A radiation is also derived predominantly from the suns rays, and while UV-A radiation is less harmful than UV-B or UV-C but is much more prevalent.

[2] = Temperature stability of dyed fabrics (colour fastness, ΔE); type: physicochemical; details: oven 80° c. for 4 h; for ΔE: before and after the stability test
Protocol: (§1) In order to assess the stability and colour fastness of violacein and violacein derivatives dyed onto fabrics, dyed fabrics were subjected to a number of conditions. Fabrics were dyed according to Example 18 and colour coordinates and colour change before and after exposure to a given condition were determined as described in Example 18. To measure temperature stability, fabrics were incubated in an oven set to 80° c. for 4 h. To measure stability under acid and alkaline conditions, fabrics were fully submerged in water solutions set to pH 8 with NaOH and pH 5 with HCl and incubated at room temperature for 30 minutes. Fabrics were then incubated at 37° c. for 4 h. To measure stability during laundering, fabrics were washed at 30° c. under the “mix” setting of a Siemens IQ300 washing machine, then dried in a Siemens IQ300 dryer until dry. To measure artificial light stability, fabrics were placed under an LED lamp at room temperature for 16 h. To measure UV light stability, fabrics were placed under a UV lamp at room temperature for 1 h.

[3] = test system: E. coli DH5a; assay: Antimicrobial activity of dyed Nylon 6,6 fabric: final OD600 and % inhibition; type: cell-based
Protocol: (§2) Violacein is reported as being a potent antibiotic, capable of inhibiting the growth of a wide range of microbial kingdoms including bacteria, yeast, fungi, viruses, protozoa and nematode. […] To test this, overnight cultures of wild-type E. coli DH5a and S. cerevisiae S228c strains were diluted in 5 mL of cultivation media (LB for E. coli, minimal media for S. cerevisiae) to a starting OD600 of 0.1. 1.5×1.5 cm dyed Nylon 6,6 fabric strips were sterilized by submerging in 75% ethanol for 15 mins and air drying in a laminar air flow hood before adding to each culture (with undyed Nylon 6,6 fabric as a negative control). […] This experiment provides evidence that all violacein derivatives display antimicrobial properties.

[4] = test system: S. cerevisiae S228c; assay: as above; type: cell-based
Protocol: as §2

[5] = Artificial light stability of dyed fabrics (colour fastness, ΔE); type: physicochemical; details: for ΔE: before vs after LED lamp, room temperature, 16 h
Protocol: as §1

[6] = Acrylic, after test (LED lamp, room temperature, 16 h)
[7] = Bleached cotton, after test (LED lamp, room temperature, 16 h)
[8] = Diacetate, after test (LED lamp, room temperature, 16 h)
[9] = Nylon 6,6, after test (LED lamp, room temperature, 16 h)
[10] = Polyester, after test (LED lamp, room temperature, 16 h)
[11] = Wool, after test (LED lamp, room temperature, 16 h)

For `O=C1NC(c2c[nH]c3ccc(O)cc23)=C/C1=C1\C(=O)Nc2ccccc21` [violacein], the “UV absorption capability in the UV-C region” value ([1]; 245 nm) was “particularly high”, the “Total UV absorption UV C (245 nm)” value ([1]; AUC of HPLC peak at 245 nm per mM) was 8876.8 (mAU · min)/mM and the “Total UV absorption UV B (305 nm)” value ([1]; AUC of HPLC peak at 305 nm per mM) was 1011.6 (mAU · min)/mM. For the same compound, the “Total UV absorption UV A (360 nm)” value ([1]; AUC of HPLC peak at 360 nm per mM) was 411.4 (mAU · min)/mM, the L ([2]; Acrylic, After test) was 62.99 and the a ([2]; Acrylic, After test) was 2.58. It also gave a b ([2]; Acrylic, After test) of −1.01, an L ([2]; Acrylic, Before test) of 64.83 and an a ([2]; Acrylic, Before test) of 1.28. It also gave a b ([2]; Acrylic, Before test) of 1.7, a ΔE ([2]; Acrylic) of 3.52 and an L ([2]; Bleached cotton, After test) of 59.33. For the same compound, the a ([2]; Bleached cotton, After test) was 3.72, the b ([2]; Bleached cotton, After test) was −8.18 and the L ([2]; Bleached cotton, Before test) was 60.51. It also gave an a ([2]; Bleached cotton, Before test) of 2.66, a b ([2]; Bleached cotton, Before test) of −6.54 and a ΔE ([2]; Bleached cotton) of 2.28. The L ([2]; Diacetate, After test) was 41.38, the a ([2]; Diacetate, After test) was 10.6 and the b ([2]; Diacetate, After test) was −12.61. For the same compound, the L ([2]; Diacetate, Before test) was 43.1, the a ([2]; Diacetate, Before test) was 8.4 and the b ([2]; Diacetate, Before test) was −12.5. The ΔE ([2]; Diacetate) was 2.79, the L ([2]; Nylon 6,6, After test) was 33.74 and the a ([2]; Nylon 6,6, After test) was 5.53. For the same compound, the b ([2]; Nylon 6,6, After test) was −19.85, the L ([2]; Nylon 6,6, Before test) was 34.91 and the a ([2]; Nylon 6,6, Before test) was 5. It also gave a b ([2]; Nylon 6,6, Before test) of −20.42, a ΔE ([2]; Nylon 6,6) of 1.41 and an L ([2]; Polyester, After test) of 67.81. For the same compound, the a ([2]; Polyester, After test) was 4.37, the b ([2]; Polyester, After test) was −3.55 and the L ([2]; Polyester, Before test) was 68.98. The a ([2]; Polyester, Before test) was 3.25, the b ([2]; Polyester, Before test) was −1.56 and the ΔE ([2]; Polyester) was 2.57. It also gave an L ([2]; Wool, After test) of 67.34, an a ([2]; Wool, After test) of 1.87 and a b ([2]; Wool, After test) of −0.17. For the same compound, the L ([2]; Wool, Before test) was 67, the a ([2]; Wool, Before test) was 1.5 and the b ([2]; Wool, Before test) was 0.36. For the same compound, the ΔE ([2]; Wool) was 0.73, the “Final OD600” value ([3]; E. coli cultured overnight at 30° c. with dyed Nylon 6,6 fabric strip, starting OD600 0.1) was 4.16 and the “% Inhibition” value ([3]; E. coli, dyed Nylon 6,6 fabric vs undyed fabric control) was 20.24%. For the same compound, the “growth inhibition of E. coli” value ([3]; dyed Nylon 6,6 fabric strip in culture, overnight 30° c., OD600 versus undyed fabric) was “most inhibited”, the “Final OD600” value ([4]; S. cerevisiae cultured overnight at 30° c. with dyed Nylon 6,6 fabric strip, starting OD600 0.1) was 4.64 and the “% Inhibition” value ([4]; S. cerevisiae, dyed Nylon 6,6 fabric vs undyed fabric control) was 13.43%. For the same compound, the L [5, 6] was 69.82, the a [5, 6] was 3.01 and the b [5, 6] was 3.46. It also gave an L ([5]; Acrylic, before test) of 65.94, an a ([5]; Acrylic, before test) of 3.06 and a b ([5]; Acrylic, before test) of 1.37. The ΔE ([5]; Acrylic) was 4.41, the L [5, 7] was 62.61 and the a [5, 7] was 4.18. The b [5, 7] was −6.26, the L ([5]; Bleached cotton, before test) was 60.03 and the a ([5]; Bleached cotton, before test) was 2.81. For the same compound, the b ([5]; Bleached cotton, before test) was −7.43, the ΔE ([5]; Bleached cotton) was 3.15 and the L [5, 8] was 52.2. For the same compound, the a [5, 8] was 6.06, the b [5, 8] was 1.03 and the L ([5]; Diacetate, before test) was 43.88. For the same compound, the a ([5]; Diacetate, before test) was 8.03, the b ([5]; Diacetate, before test) was 13.02 and the ΔE ([5]; Diacetate) was 14.73. For the same compound, the L [5, 9] was 34.82, the a [5, 9] was 4.72 and the b [5, 9] was −17.83. For the same compound, the L ([5]; Nylon 6,6, before test) was 38.2, the a ([5]; Nylon 6,6, before test) was 11.52 and the b ([5]; Nylon 6,6, before test) was −16.9. The ΔE ([5]; Nylon 6,6) was 7.65, the L [5, 10] was 73.11 and the a [5, 10] was 2.28. It also gave a b [5, 10] of 1.66, an L ([5]; Polyester, before test) of 68.58 and an a ([5]; Polyester, before test) of 3.06. It also gave a b ([5]; Polyester, before test) of −1.75, a ΔE ([5]; Polyester) of 5.72 and an L [5, 11] of 71.32. For the same compound, the a [5, 11] was 1.18, the b [5, 11] was 3.25 and the L ([5]; Wool, before test) was 67.82. For the same compound, the a ([5]; Wool, before test) was 1.06, the b ([5]; Wool, before test) was 0.85 and the ΔE ([5]; Wool) was 4.25.
